Assay results as given in patent US7799947B2, “In vivo imaging compounds” (Hammersmith Imanet Limited, priority 2005, dated 2010).

These compounds were tested against T1, NR2B receptor (Rattus norvegicus, UniProt P35439+Q00960) (assay: In vitro affinity measurement, [^3H]Ifenprodil radioligand binding (NMDA, Polyamine)). Details: Wistar Rat cerebral cortex; ligand [^3H]Ifenprodil; 2 hours at 4° C.; six concentrations tested in duplicate.
T1 construct: NMDA, Polyamine source: Wistar Rat cerebral cortex; from tissue; host or cells: Wistar rat cerebral cortex
T1 sequence (Q00960 27-1482, other chains not shown): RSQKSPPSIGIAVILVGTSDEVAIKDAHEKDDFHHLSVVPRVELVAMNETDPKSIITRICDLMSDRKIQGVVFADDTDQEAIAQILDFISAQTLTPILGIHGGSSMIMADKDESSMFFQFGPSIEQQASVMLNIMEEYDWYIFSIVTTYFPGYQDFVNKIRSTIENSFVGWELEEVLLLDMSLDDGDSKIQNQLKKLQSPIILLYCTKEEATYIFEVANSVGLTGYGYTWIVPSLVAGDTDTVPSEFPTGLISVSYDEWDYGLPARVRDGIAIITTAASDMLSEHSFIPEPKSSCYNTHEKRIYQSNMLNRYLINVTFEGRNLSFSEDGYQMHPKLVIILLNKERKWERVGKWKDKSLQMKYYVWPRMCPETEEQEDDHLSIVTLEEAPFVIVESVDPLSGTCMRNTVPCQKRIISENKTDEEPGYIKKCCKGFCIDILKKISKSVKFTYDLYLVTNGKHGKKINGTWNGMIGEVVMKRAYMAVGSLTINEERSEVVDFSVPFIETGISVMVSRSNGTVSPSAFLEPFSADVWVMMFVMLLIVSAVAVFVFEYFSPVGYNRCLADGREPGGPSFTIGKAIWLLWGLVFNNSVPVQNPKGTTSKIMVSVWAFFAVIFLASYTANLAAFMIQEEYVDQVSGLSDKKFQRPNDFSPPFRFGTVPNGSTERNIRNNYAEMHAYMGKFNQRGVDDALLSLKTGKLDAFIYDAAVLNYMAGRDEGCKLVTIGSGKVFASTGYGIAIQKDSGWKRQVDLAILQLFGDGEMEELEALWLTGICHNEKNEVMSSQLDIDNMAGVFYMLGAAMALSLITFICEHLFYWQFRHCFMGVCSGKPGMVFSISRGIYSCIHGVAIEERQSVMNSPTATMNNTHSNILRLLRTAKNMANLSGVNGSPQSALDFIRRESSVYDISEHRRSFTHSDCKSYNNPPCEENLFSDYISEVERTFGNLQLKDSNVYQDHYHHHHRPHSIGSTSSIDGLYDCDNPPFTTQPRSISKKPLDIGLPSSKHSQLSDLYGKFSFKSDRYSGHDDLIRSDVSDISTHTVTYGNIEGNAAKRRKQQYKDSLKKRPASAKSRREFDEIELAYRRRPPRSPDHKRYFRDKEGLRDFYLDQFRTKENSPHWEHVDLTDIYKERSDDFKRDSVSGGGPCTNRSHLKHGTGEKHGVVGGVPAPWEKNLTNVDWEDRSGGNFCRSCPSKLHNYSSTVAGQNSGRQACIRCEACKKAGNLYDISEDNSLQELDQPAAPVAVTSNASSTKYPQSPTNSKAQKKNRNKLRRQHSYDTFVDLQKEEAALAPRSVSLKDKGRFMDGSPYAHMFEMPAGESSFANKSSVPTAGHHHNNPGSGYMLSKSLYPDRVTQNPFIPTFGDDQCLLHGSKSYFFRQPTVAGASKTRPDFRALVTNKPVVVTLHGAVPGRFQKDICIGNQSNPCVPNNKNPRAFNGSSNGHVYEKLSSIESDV

Row | Ki [nM] | Structure (SMILES)
1 | < 11 | COc1cc(Cl)cc(CNC(=N)c2ccc(OC(F)(F)F)cc2)c1 [EA11, N-(3-methoxy-5-chlorobenzyl)-4-trifluoromethoxyphenyl amidine]
2 | < 11 | N=C(NCc1cc(Br)ccc1OCCF)c1ccc(OC(F)(F)F)cc1 [EA16]
3 | < 11 | COc1ccccc1CNC(=N)c1ccc(I)cc1 [EA12, N-(2-methoxybenzyl)-4-iodophenyl amidine]
4 | < 11 | COc1ccc(OC)c(CNC(=N)c2ccc(OC(F)(F)F)cc2)c1 [EA5, N-(2,5-dimethoxybenzyl)-4-trifluoromethoxyphenyl amidine]
5 | < 2 | COc1ccc(Br)cc1CNC(=N)c1ccc(OC(F)(F)F)cc1 [EA10, N-(2-methoxy-5-bromobenzyl)-4-trifluoromethoxyphenyl amidine]
6 | < 11 | COc1cc(CNC(=N)c2ccc(OC(F)(F)F)cc2)cc(OC)c1 [EA4, N-(3,5-dimethoxybenzyl)-4-trifluoromethoxyphenyl amidine]
7 | < 2 | COc1ccc(Cl)cc1CNC(=N)c1ccc(OC(F)(F)F)cc1 [EA9, N-(2-methoxy-5-chlorobenzyl)-4-trifluoromethoxyphenyl amidine]
8 | < 2 | N=C(NCc1cc(Cl)cc(Cl)c1)c1ccc(I)cc1 [EA14, N-(3,5-dichlorobenzyl)-4-iodophenyl amidine]
9 | < 11 | COc1cc(CNC(=N)c2ccc(OC(F)(F)F)cc2)c(OC)cc1Cl [EA8, N-(2,5-dimethoxy-4-chlorobenzyl)-4-trifluoromethoxyphenyl amidine]
10 | < 11 | N=C(NCc1cccc(Cl)c1)c1ccc(I)cc1 [EA13, N-(3-chlorobenzyl)-4-iodophenyl amidine]
11 | < 11 | N=C(NCc1cc(Cl)cc(OCCF)c1)c1ccc(OC(F)(F)F)cc1 [EA15, N-(3-(2-fluoroethoxy)-5-chlorobenzyl)-4-trifluoromethoxyphenyl amidine]
12 | < 2 | COc1cccc(OC)c1CNC(=N)c1ccc(OC(F)(F)F)cc1 [EA6, N-(2,6-dimethoxybenzyl)-4-trifluoromethoxyphenyl amidine]
13 | > 100 | COc1cccc(CNC(=N)c2ccc(OC(F)(F)F)cc2)c1OC [EA7, N-(2,3-dimethoxybenzyl)-4-trifluoromethoxyphenyl amidine]
